Measurements: article PMC9090415, “Discovery of small molecule inhibitors of Plasmodium falciparum apicoplast DNA polymerase” (Journal of Enzyme Inhibition and Medicinal Chemistry, 2022)
Where two headings read alike, the source gives them in different places.

Biological target: P. falciparum apicoplast DNA polymerase (Pf-apPOL) (Plasmodium falciparum, UniProt Q8ILY1)
Experiment: Fluorescence-based high-throughput DNA polymerase assay (molecular beacon), primary screen and dose-response
Format: biochemical
Conditions: for DNA Pol: 90 min, 10 µM; for % inhibition Apo pol 10' 2.5 / % inhibition Apo pol 10' 5 / % inhibition Apo pol 10' 10 / % inhibition Apo pol 10' 20 / % inhibition Apo pol 10' 40 / % inhibition Apo pol 10' 80: read at 10'; for % inhibition Apol 90' 2.5 / % inhibition Apol 90' 5 / % inhibition Apol 90' 10 / % inhibition Apol 90' 20 / % inhibition Apol 90' 40 / % inhibition Apol 90' 80 / % inhibition ApPOL 90' 2.5 / % inhibition ApPOL 90' 5 / % inhibition ApPOL 90' 10 / % inhibition ApPOL 90' 20 / % inhibition ApPOL 90' 40 / % inhibition ApPOL 90' 80: read at 90'; for % inhibition apPOL 180' 2.5 / % inhibition apPOL 180' 5 / % inhibition apPOL 180' 10 / % inhibition apPOL 180' 20 / % inhibition apPOL 180' 40 / % inhibition apPOL 180' 80: read at 180'; for % inhibition Apo pol 5' 2.5 / % inhibition Apo pol 5' 5 / % inhibition Apo pol 5' 10 / % inhibition Apo pol 5' 20 / % inhibition Apo pol 5' 40 / % inhibition Apo pol 5' 80: read at 5'; for % inhibition Apol 40' 2.5 / % inhibition Apol 40' 5 / % inhibition Apol 40' 10 / % inhibition Apol 40' 20 / % inhibition Apol 40' 40 / % inhibition Apol 40' 80: read at 40'
Procedure, shortened: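 Single-point screening used 10 µM compound with 20 nM polymerase, 20 nM hairpin substrate and 6 µM dNTPs for 90 min at 25 °C. Confirmatory titrations (2.5–80 µM) followed fluorescence at three times, and IC50 was derived from a fit including a cooperativity term n.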

[1] = 186 hits, DNA Pol (screen value), unit not given
[2] = 'DNA Pol' (screen value), unit not given
[3] = first dose-response, concentration 2.5
[4] = first dose-response, concentration 10
[5] = first dose-response, concentration 20

Sequence of P. falciparum apicoplast DNA polymerase (Pf-apPOL) (Q8ILY1 entry or part of it): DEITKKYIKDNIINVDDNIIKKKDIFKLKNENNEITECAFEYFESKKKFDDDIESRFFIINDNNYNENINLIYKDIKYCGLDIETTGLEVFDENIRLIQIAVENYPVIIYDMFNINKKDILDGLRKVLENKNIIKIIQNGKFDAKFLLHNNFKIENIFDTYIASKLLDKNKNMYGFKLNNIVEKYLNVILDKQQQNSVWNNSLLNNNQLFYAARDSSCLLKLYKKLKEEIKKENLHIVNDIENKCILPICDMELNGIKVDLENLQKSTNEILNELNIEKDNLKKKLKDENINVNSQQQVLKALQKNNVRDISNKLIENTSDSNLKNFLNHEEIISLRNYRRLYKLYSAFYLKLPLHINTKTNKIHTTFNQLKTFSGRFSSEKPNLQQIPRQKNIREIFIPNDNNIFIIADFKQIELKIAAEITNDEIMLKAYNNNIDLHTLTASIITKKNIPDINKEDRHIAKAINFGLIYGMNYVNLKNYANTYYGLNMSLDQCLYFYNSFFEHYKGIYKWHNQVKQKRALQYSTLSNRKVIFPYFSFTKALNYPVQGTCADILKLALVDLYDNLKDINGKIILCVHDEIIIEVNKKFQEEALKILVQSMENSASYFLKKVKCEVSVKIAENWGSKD

COc1ccc(C2CC(c3ccc(Cl)cc3Cl)Nc3nc(N)nn32)cc1OC (centres unmarked) [Molecule 43, COc1cc(ccc1OC)C1CC(Nc2n1nc(n2)N)c1ccc(cc1Cl)Cl]
DNA Pol [1]: 50
DNA Pol [2]: 50
% inhibition Apo pol 10' 2.5 (DRC-1, concentration 2.5): 35%
% inhibition Apo pol 10' 5 (DRC-1, concentration 5): 39%
% inhibition Apo pol 10' 10 (DRC-1, concentration 10): 50%
% inhibition Apo pol 10' 20 (DRC-1, concentration 20): 56%
% inhibition Apo pol 10' 40 (DRC-1, concentration 40): 63%
% inhibition Apo pol 10' 80 (DRC-1, concentration 80): 71%
% inhibition Apol 90' 2.5 (DRC-1, concentration 2.5): 28%
% inhibition Apol 90' 5 (DRC-1, concentration 5): 32%
% inhibition Apol 90' 10 (DRC-1, concentration 10): 43%
% inhibition Apol 90' 20 (DRC-1, concentration 20): 51%
% inhibition Apol 90' 40 (DRC-1, concentration 40): 58%
% inhibition Apol 90' 80 (DRC-1, concentration 80): 67%
% inhibition apPOL 180' 2.5 (DRC-1, concentration 2.5): 22%
% inhibition apPOL 180' 5 (DRC-1, concentration 5): 25%
% inhibition apPOL 180' 10 (DRC-1, concentration 10): 35%
% inhibition apPOL 180' 20 (DRC-1, concentration 20): 43%
% inhibition apPOL 180' 40 (DRC-1, concentration 40): 52%
% inhibition apPOL 180' 80 (DRC-1, concentration 80): 62%
% inhibition Apo pol 5' (DRC-2, concentration 5): 22%
% inhibition Apo pol 5' (DRC-2, concentration 10): 28%
% inhibition Apo pol 5' (DRC-2, concentration 20): 30%
% inhibition Apo pol 5' (DRC-2, concentration 40): 39%
% inhibition Apol 40' (DRC-2, concentration 2.5): 26%
% inhibition Apol 40' (DRC-2, concentration 5): 29%
% inhibition Apol 40' (DRC-2, concentration 20): 42%
% inhibition Apol 40' (DRC-2, concentration 80): 51%
% inhibition ApPOL 90' (DRC-2, concentration 2.5): 26%
% inhibition ApPOL 90' (DRC-2, concentration 5): 29%
% inhibition ApPOL 90' (DRC-2, concentration 20): 42%
% inhibition ApPOL 90' (DRC-2, concentration 40): 50%
% inhibition ApPOL 90' (DRC-2, concentration 80): 52%
% inhibition apPOL 180' (DRC-2, concentration 10): 30%
% inhibition apPOL 180' (DRC-2, concentration 20): 35%
% inhibition apPOL 180' (DRC-2, concentration 40): 43%
% inhibition Apo pol 5' 2.5 (DRC-2, concentration 2.5): 23%
% inhibition Apo pol 5' 5 (DRC-2, concentration 5): 22%
% inhibition Apo pol 5' 10 (DRC-2, concentration 10): 28%
% inhibition Apo pol 5' 20 (DRC-2, concentration 20): 30%
% inhibition Apo pol 5' 40 (DRC-2, concentration 40): 39%
% inhibition Apo pol 5' 80 (DRC-2, concentration 80): 38%
% inhibition Apol 40' 2.5 (DRC-2, concentration 2.5): 26%
% inhibition Apol 40' 5 (DRC-2, concentration 5): 29%
% inhibition Apol 40' 10 (DRC-2, concentration 10): 36%
% inhibition Apol 40' 20 (DRC-2, concentration 20): 42%
% inhibition Apol 40' 40 (DRC-2, concentration 40): 49%
% inhibition Apol 40' 80 (DRC-2, concentration 80): 51%
% inhibition ApPOL 90' 2.5 (DRC-2, concentration 2.5): 26%
% inhibition ApPOL 90' 5 (DRC-2, concentration 5): 29%
% inhibition ApPOL 90' 10 (DRC-2, concentration 10): 37%
% inhibition ApPOL 90' 20 (DRC-2, concentration 20): 42%
% inhibition ApPOL 90' 40 (DRC-2, concentration 40): 50%
% inhibition ApPOL 90' 80 (DRC-2, concentration 80): 52%
% inhibition apPOL 180' 2.5 (DRC-2, concentration 2.5): 18%
% inhibition apPOL 180' 5 (DRC-2, concentration 5): 21%
% inhibition apPOL 180' 10 (DRC-2, concentration 10): 30%
% inhibition apPOL 180' 20 (DRC-2, concentration 20): 35%
% inhibition apPOL 180' 40 (DRC-2, concentration 40): 43%
% inhibition apPOL 180' 80 (DRC-2, concentration 80): 46%
% inhibition Apo pol 10' [3]: 35%
% inhibition Apo pol 10' (first dose-response, concentration 5): 39%
% inhibition Apo pol 10' [4]: 50%
% inhibition Apol 90' [3]: 28%
% inhibition Apol 90' [4]: 43%
% inhibition Apol 90' [5]: 51%
% inhibition apPOL 180' [3]: 22%
% inhibition apPOL 180' [4]: 35%
% inhibition apPOL 180' [5]: 43%
% inhibition apPOL 180' (first dose-response, concentration 40): 52%

COc1ccc(CNC(=O)Cn2nc3c(c2NC(=O)Cc2cccs2)CSC3)cc1 [Molecule 55]
IC50 (read-out: IC50 Pf-apPOL, Table 2): 10 ± 2 µM
IC50 (supplemental file 2, sheet IC50 nontoxic compounds, Pf-apPOL): 10.5 µM

Cc1cccc(-c2noc(C(=O)NNC(=O)C(Cl)(Cl)Cl)n2)c1 [KU0266208]
DNA Pol [1]: 74
DNA Pol [2]: 74
% inhibition Apo pol 10' 2.5 (DRC-1, concentration 2.5): 9.201%
% inhibition Apo pol 10' 5 (DRC-1, concentration 5): 9.396%
% inhibition Apo pol 10' 10 (DRC-1, concentration 10): 14.6387%
% inhibition Apo pol 10' 20 (DRC-1, concentration 20): 23.1394%
% inhibition Apo pol 10' 40 (DRC-1, concentration 40): 47.3506%
% inhibition Apo pol 10' 80 (DRC-1, concentration 80): 74.0124%
% inhibition Apol 90' 2.5 (DRC-1, concentration 2.5): -1.588%
% inhibition Apol 90' 5 (DRC-1, concentration 5): -0.4833%
% inhibition Apol 90' 10 (DRC-1, concentration 10): 4.634%
% inhibition Apol 90' 20 (DRC-1, concentration 20): 14.9894%
% inhibition Apol 90' 40 (DRC-1, concentration 40): 39.8547%
% inhibition Apol 90' 80 (DRC-1, concentration 80): 66.9528%
% inhibition apPOL 180' 2.5 (DRC-1, concentration 2.5): -5.775%
% inhibition apPOL 180' 5 (DRC-1, concentration 5): -5.2438%
% inhibition apPOL 180' 10 (DRC-1, concentration 10): -0.4994%
% inhibition apPOL 180' 20 (DRC-1, concentration 20): 8.812%
% inhibition apPOL 180' 40 (DRC-1, concentration 40): 34.7216%
% inhibition apPOL 180' 80 (DRC-1, concentration 80): 64.1117%
% inhibition Apo pol 5' (DRC-2, concentration 10): 11%
% inhibition Apol 40' (DRC-2, concentration 10): 11%
% inhibition Apol 40' (DRC-2, concentration 20): 24%
% inhibition ApPOL 90' (DRC-2, concentration 20): 24%
% inhibition Apo pol 5' 2.5 (DRC-2, concentration 2.5): 4.48%
% inhibition Apo pol 5' 5 (DRC-2, concentration 5): 5.63%
% inhibition Apo pol 5' 10 (DRC-2, concentration 10): 11%
% inhibition Apo pol 5' 20 (DRC-2, concentration 20): 21%
% inhibition Apo pol 5' 40 (DRC-2, concentration 40): 36%
% inhibition Apo pol 5' 80 (DRC-2, concentration 80): 49%
% inhibition Apol 40' 2.5 (DRC-2, concentration 2.5): 4.33%
% inhibition Apol 40' 5 (DRC-2, concentration 5): 4.64%
% inhibition Apol 40' 10 (DRC-2, concentration 10): 11%
% inhibition Apol 40' 20 (DRC-2, concentration 20): 24%
% inhibition Apol 40' 40 (DRC-2, concentration 40): 44%
% inhibition Apol 40' 80 (DRC-2, concentration 80): 58%
% inhibition ApPOL 90' 2.5 (DRC-2, concentration 2.5): 3%
% inhibition ApPOL 90' 5 (DRC-2, concentration 5): 2.46%
% inhibition ApPOL 90' 10 (DRC-2, concentration 10): 10%
% inhibition ApPOL 90' 20 (DRC-2, concentration 20): 24%
% inhibition ApPOL 90' 40 (DRC-2, concentration 40): 45%
% inhibition ApPOL 90' 80 (DRC-2, concentration 80): 60%
% inhibition apPOL 180' 2.5 (DRC-2, concentration 2.5): -1%
% inhibition apPOL 180' 5 (DRC-2, concentration 5): 1.1%
% inhibition apPOL 180' 10 (DRC-2, concentration 10): 5.71%
% inhibition apPOL 180' 20 (DRC-2, concentration 20): 20%
% inhibition apPOL 180' 40 (DRC-2, concentration 40): 42%
% inhibition apPOL 180' 80 (DRC-2, concentration 80): 59%

Cc1ccc2c(C(=O)NCCc3cccnc3)cc(NC(=O)C(C)C)cc2n1 [KU0206096]
DNA Pol ("DNA Pol" of the 186 hits list (screen value)): 22
% inhibition Apo pol 10' (DRC-1, concentration 2.5): 2.289%
% inhibition Apo pol 10' (DRC-1, concentration 5): 10.1779%
% inhibition Apo pol 10' (DRC-1, concentration 10): 28.6368%
% inhibition Apo pol 10' (DRC-1, concentration 20): 37.57%
% inhibition Apo pol 10' (DRC-1, concentration 40): 75.2311%
% inhibition Apo pol 10' (DRC-1, concentration 80): 89.4827%
% inhibition Apol 90' (DRC-1, concentration 2.5): -0.2653%
% inhibition Apol 90' (DRC-1, concentration 5): 3.264%
% inhibition Apol 90' (DRC-1, concentration 10): 15.2748%
% inhibition Apol 90' (DRC-1, concentration 20): 20.9182%
% inhibition Apol 90' (DRC-1, concentration 40): 58.3993%
% inhibition Apol 90' (DRC-1, concentration 80): 83.2702%
% inhibition apPOL 180' (DRC-1, concentration 2.5): -4.525%
% inhibition apPOL 180' (DRC-1, concentration 5): -3.235%
% inhibition apPOL 180' (DRC-1, concentration 10): 5.405%
% inhibition apPOL 180' (DRC-1, concentration 20): 7.166%
% inhibition apPOL 180' (DRC-1, concentration 40): 41.4073%
% inhibition apPOL 180' (DRC-1, concentration 80): 75.1879%
% inhibition Apo pol 5' (DRC-2, concentration 2.5): -0.312%
% inhibition Apo pol 5' (DRC-2, concentration 5): 5.56%
% inhibition Apo pol 5' (DRC-2, concentration 10): 24%
% inhibition Apo pol 5' (DRC-2, concentration 20): 40%
% inhibition Apo pol 5' (DRC-2, concentration 40): 49%
% inhibition Apo pol 5' (DRC-2, concentration 80): 49%
% inhibition Apol 40' (DRC-2, concentration 2.5): 1.82%
% inhibition Apol 40' (DRC-2, concentration 5): 5.58%
% inhibition Apol 40' (DRC-2, concentration 10): 24%
% inhibition Apol 40' (DRC-2, concentration 20): 42%
% inhibition Apol 40' (DRC-2, concentration 40): 62%
% inhibition Apol 40' (DRC-2, concentration 80): 70%
% inhibition ApPOL 90' (DRC-2, concentration 2.5): 1.09%
% inhibition ApPOL 90' (DRC-2, concentration 5): 5.45%
% inhibition ApPOL 90' (DRC-2, concentration 10): 21%
% inhibition ApPOL 90' (DRC-2, concentration 20): 39%
% inhibition ApPOL 90' (DRC-2, concentration 40): 63%
% inhibition ApPOL 90' (DRC-2, concentration 80): 75%
% inhibition apPOL 180' (DRC-2, concentration 2.5): -1.29%
% inhibition apPOL 180' (DRC-2, concentration 5): 2.66%
% inhibition apPOL 180' (DRC-2, concentration 10): 13%
% inhibition apPOL 180' (DRC-2, concentration 20): 28%
% inhibition apPOL 180' (DRC-2, concentration 40): 57%
% inhibition apPOL 180' (DRC-2, concentration 80): 78%
DNA Pol (primary screen value, DNA Pol): 22
